According to US8685726B2, “Small molecules supporting pluripotent cell growth and methods thereof” (Viacyte, Inc., priority 2009, dated 2014):
Counter-ions that a name gives are not always drawn. Like-named read-outs stand apart in the source and are kept apart here.

Experiments:
hES cells [1] = assay: Alkaline phosphatase staining screen of LOPAC1280 library (primary screen and secondary dose titration); type: cell-based, human; conditions: secondary screen, dilution series, 48 hours with compound, AP staining, StemPro hESC SFM, 96-well, read-out: [Concentration] minimal effective concentration negatively impacting hES cell cultures
Procedure: FIG. 1. Representation of antagonists/modulators of neurotransmitter/hormone receptors identified by compound screening in hES cells. […] Receptor antagonists identified in the primary screen are shown (left column). The screen was performed using compounds at 10 μM. The secondary dose titration assay is shown (50-0.1 μM columns), and receptor class targeted by each compound and action is indicated.
Applying this approach in 96- and 384-well plates, quantitative and statistically significant cell-counting data was generated confirming the effect of AG825, an inhibitor of ERBB2 signaling, on self-renewal. About 3×10^4 hES cells per well were plated on MATRIGEL™ in StemPro® hESC SFM in 96-well plates and cultured for about 24 hours. The media was then changed, with new media containing 10 μM of a compound from the LOPAC1280 library (partial list in Table 1), and the cultures incubated for an additional 48 hours. The cultures were then fixed and stained for endogenous alkaline phosphatase, a marker of undifferentiated hES cells, activity.
The LOPAC1280 collection (Sigma Cat# LO1280), a library of small organic molecules with well-characterized pharmacological activities, was screened using the above described alkaline phosphatase detection assay in 96-well plates (16 plates total). Each 96-well assay was performed with 80 compounds (1 compound per well) and 16 wells as DMSO carrier negative controls. Greater than about 50 compounds were identified in the primary screen as impacting hES cell growth & expansion, which was then further determined to be a group of 38 molecules (Table 1) after secondary screening, and when known generally cytotoxic molecules were excluded (for example, 5-Azacytidine). Pathways that are likely to be impacted by these molecules, and therefore possibly important in hES cells, included those involving signalling by NFκB, eNOS, RAR(a), calcium channels, tachykinin signaling, guanylyl cyclase, Src and Jak2.
Secondary screening was performed using the same assay, but with a dilution series of 0.1-50 μM of a compound as compared to the 10 μM initially used. The minimal effective concentration for each compound is indicated (Table 1). […] While a role for GABA signaling in hES cell self-renewal has been highlighted previously (Ludwig et al., 2006), it has not been examined under other defined media conditions. Potential roles for other neurotransmitters in undifferentiated pluripotent stem cells have not been characterized.

hES cells [2] = assay: Low-density real-time cell index monitoring (RT-CES impedance reader); type: cell-based, human; conditions: 1000 cells/well; for survival/proliferation compared to DMSO controls: StemPro hESC SFM HIA, low-density impedance assay
Procedure: FIG. 4. Titration of NE and ACh using the RT-CES impedance reader. 1000 hES cells/well were plated in StemPro® hESC SFM containing the indicated concentrations of small molecules (in μM). In such an assay, the timing of when the cell index rises is associated with the proportion of cells that survive and expand at low density.
FIG. 5. Combined effects of small molecules compound combinations in low cell density assays. (A) 1000 hES cells/well were plated in StemPro® hESC SFM containing small molecules at 50 μM (NE, ACh, Adenosine, GABA) or 10 μM (Y27632). The assay was carried out over 5 days using the RT-CES system.
FIG. 6. […] 1000 hES cells/well were plated in StemPro® hESC SFM containing Heregulin, IGF1 and Activin (HIA) and the indicated small molecules. […] Compounds were tested at 10 μM. The DMSO trace is an average of 8 wells. […] Compounds were tested at the indicated concentrations.
FIG. 7. […] 1000 hES cells/well were plated in StemPro® hESC SFM containing the indicated combinations of growth factors and small molecules. Heregulin (H), LR3-IGF1 (I), Activin (A).
FIG. 9. Low-density RT-CES assays of combinations of growth factors and neurotransmitters. 1000 hES cells/well were plated in StemPro® hESC SFM containing the indicated combinations of growth factors and small molecules. Heregulin (H), LR3-IGF1 (I), Activin (A). Small molecules were tested at 50 μM.
Furthermore, pluripotent cells can also be grown in 96-well culture devices that provide real-time measurements of impedance, which can be used to measure cell proliferation and viability using the RT-CES™ methods from ACEA Biosciences, Inc. (www (dot) aceabio (dot) com). Such an approach would enable a label-free identification and quantification of subtle or immediate effects on differentiable cells, as well as measurements of proliferation, apoptosis and changes to morphology, in real time.
To examine more closely the potency of individual neurotransmitters and determine if synergies exist between different factors, low-density assays were performed in real time using an impedance reader. The ACEA biosciences RT-CES system uses 96-well trays that contain embedded microsensors to monitor changes in electrical impedance, which is translated into a measure of cell index. Any overt alteration within a cell culture can be detected, including but not limited to cell proliferation, migration, cell spreading, apoptosis, differentiation and the like. […] Once an undifferentiated culture becomes confluent the cell index remains high, but tends to go down and up (scallop) between daily feedings. Conversely, differentiation is typically indicated by the appearance of distinctive patterns, such as peaks and troughs in the cell index, likely indicative of an epithelial-to-mesenchymal transition, flattening, cell migration, apoptosis or similar differentiation and growth related changes.
Human ES cells were plated at low density, 1000 cells/well, in RT-CES trays and cultured for 10 days (FIG. 4). Cells were plated directly in StemPro® hESC SFM containing carrier control (DMSO), NE, or ACh.

Row | Molecule | minimal effective concentration (hES cells [1]) [µM] | minimal effective concentration (hES cells [1]; Homo sapiens) [µM] | also measured
1 | C[C@@H]1O[C@@H](O[C@H]2C[C@@H](O)[C@]3(CO)[C@H]4[C@H](O)C[C@]5(C)[C@@H]([C@@H]6COC(=O)C6)CC[C@]5(O)[C@@H]4CC[C@]3(O)C2)[C@H](O)[C@H](O)[C@H]1O [Dihydroouabain] | 1 |  | 
2 | Nc1ccc(CCN2CCN(c3cccc(C(F)(F)F)c3)CC2)cc1 [PAPP] | 25 |  | 
3 | C=CC1=C(C)c2cc3[nH]c(cc4nc(cc5[nH]c(cc1n2)c(C)c5CCC(=O)O)C(CCC(=O)O)=C4C)c(C)c3C=C [Protoporphyrin IX disodium] |  | 10 | 
4 | CC1=C(/C=C/C(C)=C/C=C/C(C)=C/C(=O)Nc2ccc(O)cc2)C(C)(C)CCC1 [Retinoic acid p-hydroxyanilide] | 1 |  | 
5 | NCCc1c[nH]c2ccc(O)cc12 [serotonin] |  |  | survival/proliferation compared to DMSO controls (hES cells [2]): enhanced survival/proliferation
6 | heregulin |  |  | low cell density survival with a single growth factor (hES cells [2]; StemPro hESC SFM): did not support low cell density survival
7 | CC[n+]1c(/C=C/C=C2/N(C)c3ccccc3C2(C)C)sc2ccccc21.[I-] [AC-93253 iodide] | 5 |  | 
8 | CC(C)(C)c1ccc(C(O)CCCN2CCC(C(O)(c3ccccc3)c3ccccc3)CC2)cc1 (centres unmarked) [Terfenadine] |  | 25 | 
9 | NCCc1ccc(O)c(O)c1 [dopamine] |  |  | survival/proliferation compared to DMSO controls (hES cells [2]): enhanced survival/proliferation
10 | COCC(=O)O[C@]1(CCN(C)CCCc2nc3ccccc3[nH]2)CCc2cc(F)ccc2[C@@H]1C(C)C [Mibefradil dihydrochloride] |  | 25 | 
11 | CC(C)[C@H]1c2ccc(F)cc2CC[C@@]1(CCN(C)CCCc1nc2ccccc2[nH]1)OC(=O)C1CC1 [NNC 55-0396] | 25 |  | 
12 | Cc1cc(N)c2ccccc2[n+]1CCCCCCCCCC[n+]1c(C)cc(N)c2ccccc21 [Dequalinium chloride hydrate] |  | 5 | 
13 | COc1cc2c(cc1O)CC[C@@H]1[C@@H]2CC[C@]2(C)[C@@H](O)CC[C@@H]12 [2-methoxyestradiol] | 10 |  | 
14 | CC[N+](CC)(CC)CCOc1ccc(/C=C/c2ccccc2)cc1 [MG 624] |  | 0.1 | 
15 | CNc1ccc2oc(C[C@H]3O[C@@]4(CC[C@H]3C)O[C@H]([C@H](C)C(=O)c3ccc[nH]3)[C@H](C)C[C@H]4C)nc2c1C(=O)O [Calcimycin] |  | 1 | 
16 | CN(C)S(=O)(=O)c1ccc2c(c1)/C(=C/c1cc3c([nH]1)CCCC3)C(=O)N2 [SU 6656] |  | 25 | 
17 | c1ccc2c(c1)[I+]c1ccccc1-2 [Diphenyleneiodonium chloride] |  | 0.1 | 
18 | C/C=C(/C)C(=O)O[C@H]1C(C)=C2[C@H]([C@@H]1OC(=O)CCCCCCC)[C@@](C)(OC(C)=O)C[C@H](OC(=O)CCC)[C@@]1(O)[C@H]2OC(=O)[C@@]1(C)O [Thapsigargin] |  | < 0.1 | 
19 | N=C(N)c1ccc(OCCCCCOc2ccc(C(=N)N)cc2)cc1 [Pentamidine isethionate] |  | 1 | 
20 | COc1cc(CC(=O)O)ccc1O [HVA, homovanillic acid] |  |  | survival/proliferation compared to DMSO controls (hES cells [2]): enhanced survival/proliferation
21 | C[C@@H]1O[C@@H](O[C@H]2C[C@@H](O)[C@]3(CO)[C@H]4[C@H](O)C[C@]5(C)[C@@H](C6=CC(=O)OC6)CC[C@]5(O)[C@@H]4CC[C@]3(O)C2)[C@H](O)[C@H](O)[C@H]1O [Ouabain] |  | < 0.1 | 

Row | Molecule | minimal effective concentration (hES cells [1]) [µM] | minimal effective concentration (hES cells [1]; Homo sapiens) [µM] | also measured
22 | COC(=O)C1=C(C)NC(C)=C(C(=O)OC(C)(C)CN(C)CCC(c2ccccc2)c2ccccc2)C1c1cccc([N+](=O)[O-])c1 (centres unmarked) [Lercanidipine hydrochloride hemihydrate] |  | 10 | 
23 | N.S=C(S)N1CCCC1 [Ammonium pyrrolidinedithiocarbamate] | 10 |  | 
24 | C[C@H]1CCC/C=C/[C@@H]2C[C@H](O)C[C@H]2[C@H](O)/C=C/C(=O)O1 [Brefeldin A] | <0.1 |  | 
25 | Ivermectin | 5 |  | 
26 | CNC(=O)[C@H]1O[C@@H](n2cnc3c(NCc4cccc(I)c4)ncnc32)[C@H](O)[C@@H]1O [IB-MECA] | 50 |  | 
27 | Oc1cc2c(cc1O)CN(C(=S)NCCc1ccc(Cl)cc1)CCC2 [Capsazepine] |  | 5 | 
28 | COc1cc([C@@H]2c3cc4c(cc3[C@H](O)[C@H]3COC(=O)[C@H]23)OCO4)cc(OC)c1OC [Podophyllotoxin] |  | < 0.1 | 
29 | Oc1cc(-c2ccccc2)nc2nc(Cl)ccc12 [7-Chloro-4-hydroxy-2-phenyl-1,8-naphthyridine] |  | 5 | 
30 | COc1ccc(CCCOC(Cn2ccnc2)c2ccc(OC)cc2)cc1 (centres unmarked) [SKF 96365] |  | 25 | 
31 | Cc1nc(-c2ccc(-c3ccc(C(=O)N4CCc5cc6c(cc54)C4(CCN(C)CC4)CO6)cc3)c(C)c2)no1 [SB 224289 hydrochloride] |  | 25 | 
32 | O=c1[nH]c2ccccc2n1CCCN1CCC(n2c(=O)[nH]c3cc(Cl)ccc32)CC1 [Domperidone] |  | 25 | 
33 | CCCCCCCC/C=C\CCCCCCCC(=O)NCCc1ccc(O)c(O)c1 [N-Oleoyldopamine] |  | 5 | 
34 | Clc1ccc(C(c2ccc(Cl)cc2)n2cc[n+](CC(OCc3ccc(Cl)cc3Cl)c3ccc(Cl)cc3Cl)c2)cc1 (centres unmarked) [Calmidazolium chloride] |  | 5 | 
35 | O=C(/C=C/c1ccc(O)c(O)c1)OCCc1ccccc1 [Caffeic acid phenethyl ester] |  | < 0.1 | 
36 | CCN(CC)CCCC(C)Nc1c2ccc(Cl)cc2nc2ccc(OC)cc12 (centres unmarked) [Quinacrine dihydrochloride] |  | 10 | 
37 | N#C/C(=C\c1ccc(O)c(O)c1)C(=O)NCc1ccccc1 [Tyrphostin AG 490] | 25 |  | 
38 | Ic1ccccc1CNC1C2CCN(CC2)C1C(c1ccccc1)c1ccccc1.O=C(O)C(=O)O [L-703,606 oxalate] | 25 |  | 
39 | CC(Cc1ccc(O)c(O)c1)C(C)Cc1ccc(O)c(O)c1 (centres unmarked) [Nordihydroguaiaretic acid] |  | 5 | 
40 | Vinblastine sulfate salt | <0.1 |  | 
41 | CC1(C)CCC2=C(O1)c1ccccc1C(=O)C2=O [beta-Lapachone] |  | 5 | 
